# Where two headings read alike, the source gives them in different places.
# Tests used:
# [1] = Multiple-dose pharmacokinetics of 1 mg NA/10 mcg EE tablets in 18 postmenopausal women; format: in vivo, human; settings: for Tmax / Cmax / AUC(0-t) / half-life: female, human; for AUC(0-t): read-out: AUC(0-24); for half-life: read-out: t½ (converted)
# [2] = Absorption and bioavailability after oral administration of femhrt ⅕ / NA/EE tablets; format: in vivo; settings: for bioavailability: human, after oral dosing, first-pass metabolism, read-out: absolute bioavailability
# Method: The term “effective dose” means the amount of a progestin and an estrogen required to delay the onset or treat symptoms manifested by skin aging or acne in a particular patient. […] Norethindrone acetate and EE are rapidly absorbed from femhrt ⅕ tablets, with maximum plasma concentrations of norethindrone and EE generally occurring 1 to 2 hours postdose. […] For example, a method for preventing and treating acne in a patient in need of treatment comprising administering an effective amount of Estrostep which contains 1 mg NA and a gradually increasing dose of ethinyl estradiol; 20 mcg×5 days, 30 mcg×7 days, and 35 mcg×9 days in a pharmaceutically acceptable carrier. Other dosage forms may be administered.
# Norethindrone acetate and EE are rapidly absorbed from femhrt ⅕ tablets, with maximum plasma concentrations of norethindrone and EE generally occurring 1 to 2 hours postdose. […] The extent of norethindrone absorption is increased by 27% following administration of NA/EE tablets with food.
# [3] = Population pharmacokinetic analysis of NA/EE tablets; settings: for average steady-state concentrations (Css): femhrt ⅕ (1 mg NA/5 mcg EE), estimated from population pharmacokinetic analysis
# Method: However, the multiple-dose pharmacokinetics were studied at a dose of 1 mg NA/10 mcg EE in 18 postmenopausal women.
# [4] = Distribution: volume of distribution; settings: human, in vivo
# Description: (§1) Volume of distribution of norethindrone and EE ranges from 2 to 4 L/kg. Plasma protein binding of both steroids is extensive (>95%); norethindrone binds to both albumin and SHBG, whereas EE binds only to albumin.
# Plasma protein binding = format: in vitro ADME; settings: human
# Description: as §1
# [5] = plasma, oral, Single-Dose (Day 1), 1 mg NA/10 mcg EE tablets, Mean (SD)
# [6] = plasma, oral, Steady-State (Day 87), 1 mg NA/10 mcg EE tablets, Mean (SD)
structure (smiles),measurement,setting,value
C#C[C@]1(O)CC[C@H]2C3CCc4cc(O)ccc4[C@H]3CCC21C (stereo partly drawn) [Ethinyl Estradiol],Tmax,"[1]; in vivo, Tmax",2.2 h
same,bioavailability,[2]; in vivo,~55%
same,effect of high fat meal on absorption,[2]; in vivo,decreases rate but not extent
same,average steady-state concentrations (Css),[3],0.0114 ng/mL
same,dose proportionality of mean steady-state plasma concentrations,[3]; in vivo,proportional to dose
same,dose proportionality of steady-state concentrations,[3]; in vivo,less than proportional increase
same,effect of age on pharmacokinetics,[3]; in vivo,not affected by age
same,Vd,[4],2 to 4 L/kg
same,fraction unbound,Plasma protein binding,< 0.05
"C#C[C@]1(OC(C)=O)CC[C@H]2C3CCC4=CC(=O)CCC4[C@H]3CCC21C (stereo partly drawn) [NA, (17-alpha)-17-(acetyloxy)-19-norpregna-4-en-20-yn-3-one]",deacetylation to norethindrone,"[2]; in vivo, po",completely and rapidly deacetylated
same,effect of age on pharmacokinetics,[3]; in vivo,not affected by age
"C#C[C@]1(O)CC[C@H]2[C@@H]3CCC4=CC(=O)CC[C@@H]4[C@H]3CC[C@@]21C [Norethindrone, norethindrone]",CL/F,"[1]; Single-Dose (Day 1), 1 mg NA/10 mcg EE tablets, Mean (SD)",588 (416) mL/min
same,CL/F,"[1]; Steady-State (Day 87), 1 mg NA/10 mcg EE tablets, Mean (SD)",226 (139) mL/min
same,Cmax,[1]; [5],6 ng/mL
same,AUC(0-t),[1]; [5],29.7 ng·h/mL
same,Tmax,"[1]; plasma, oral, Single-Dose (Day 1), 1 mg NA/10 mcg EE tablets, Mean (SD), read-out: Tmax",1.8 h
same,half-life,[1]; [5],10.3 h
same,Cmax,[1]; [6],10.7 ng/mL
same,AUC(0-t),[1]; [6],81.8 ng·h/mL
same,Tmax,"[1]; plasma, oral, Steady-State (Day 87), 1 mg NA/10 mcg EE tablets, Mean (SD), read-out: Tmax",1.8 h
same,half-life,[1]; [6],13.3 h
same,increase of extent of absorption with food,[2]; NA/EE tablets with food,27%
same,bioavailability,[2]; in vivo,~64%
same,dose proportionality of mean steady-state concentrations,[3]; 1 mg NA/5 mcg EE and 1/10 compared to 0.5 mg NA/2.5 mcg EE tablets,slightly more than proportional to dose
same,average steady-state concentrations (Css),[3],2.6 ng/mL
same,Vd,[4],2 to 4 L/kg
same,fraction unbound,Plasma protein binding,< 0.05
